Source: patent US9108930B2, “N1- and N2-carbamoyl-1,2,3-triazole serine hydrolase inhibitors and methods” (The Scripps Research Institute, priority 2011, dated 2015)
Several values for one entry are separate records, joined by “and”; a condition that tells them apart may be missing. Equal entries are not always repeated.

Columns and labels:
ABHD6 [1] = target: T1, ABHD6 (Mus musculus, UniProt Q8R2Y0); experiment: In situ inhibition in Neuro2A cells, competitive ABPP; assay type: cell-based; conditions: 4 hours, same dose as used for DAGLB by KT109 and KT172
T1 sequence (Q8R2Y0 1-336): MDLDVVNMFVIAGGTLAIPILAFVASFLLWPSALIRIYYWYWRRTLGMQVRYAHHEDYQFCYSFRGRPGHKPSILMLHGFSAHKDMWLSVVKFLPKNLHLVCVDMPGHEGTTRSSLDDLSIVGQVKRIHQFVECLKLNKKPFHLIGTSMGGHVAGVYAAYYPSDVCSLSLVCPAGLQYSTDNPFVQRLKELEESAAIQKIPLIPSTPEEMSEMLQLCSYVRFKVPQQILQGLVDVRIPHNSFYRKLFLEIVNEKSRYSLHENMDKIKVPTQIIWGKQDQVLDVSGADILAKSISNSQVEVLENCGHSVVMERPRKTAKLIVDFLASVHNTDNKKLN
Method: For gel-based competitive ABPP studies, proteomes from cells treated in situ with inhibitor for 4 h at 37° C. at the indicated concentrations (n=3) were labeled with HT-01 (1 μM) for 30 min at 37° C. After quenching, SDS-PAGE, and in-gel visualization, the percentage of enzyme activity remaining was determined by measuring the integrated optical intensity of the bands using IMAGER® software. For LC-MS substrate assays, the percentage of enzyme activity remaining was determined by comparing the specific activity (amount of 2-AG formed per min per mg of proteome) of inhibitor with DMSO-treated samples. The IC50 values were determined from a dose-response curve generated using GraphPad PRISM® software.

APEH [2] = target: T2, APEH (Mus musculus, UniProt Q8R146); experiment: Fluorogenic APEH substrate assay on brain proteomes of treated mice; assay type: in vivo; conditions: 0.4 mg/kg; brain proteome
T2 sequence (Q8R146 1-732): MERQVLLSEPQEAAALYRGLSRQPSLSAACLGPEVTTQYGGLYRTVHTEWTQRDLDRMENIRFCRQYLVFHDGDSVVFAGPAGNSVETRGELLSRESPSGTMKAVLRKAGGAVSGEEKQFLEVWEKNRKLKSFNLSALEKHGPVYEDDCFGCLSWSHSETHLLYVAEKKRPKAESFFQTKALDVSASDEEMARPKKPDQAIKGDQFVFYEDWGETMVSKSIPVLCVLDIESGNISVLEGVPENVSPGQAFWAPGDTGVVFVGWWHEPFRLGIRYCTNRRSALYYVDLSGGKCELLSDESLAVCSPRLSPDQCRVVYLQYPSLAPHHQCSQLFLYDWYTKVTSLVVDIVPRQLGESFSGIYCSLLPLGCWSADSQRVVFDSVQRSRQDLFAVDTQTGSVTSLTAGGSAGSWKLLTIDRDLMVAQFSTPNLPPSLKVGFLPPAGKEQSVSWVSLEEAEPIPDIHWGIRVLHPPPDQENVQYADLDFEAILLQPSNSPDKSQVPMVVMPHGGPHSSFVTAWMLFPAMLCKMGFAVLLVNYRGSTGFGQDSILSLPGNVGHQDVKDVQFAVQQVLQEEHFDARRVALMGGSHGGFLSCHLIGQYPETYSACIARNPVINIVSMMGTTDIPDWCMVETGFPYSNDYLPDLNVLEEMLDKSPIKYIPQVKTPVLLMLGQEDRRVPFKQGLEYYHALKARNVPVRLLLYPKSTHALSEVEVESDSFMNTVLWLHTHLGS
Method: APEH activity assay was performed using fluorogenic substrate N-Acetyl-L-alanine p-nitroanilide.
Soluble brain proteomes (100 μL of 1 mg/mL protein) from AA74-1 (or vehicle)-injected mice were treated in a 96-well plate with N-acetyl-L-alanine 4-nitroanilide (100 μM final concentration) and the samples were incubated for 2 h at 37° C. Relative absorbance was measured with a plate reader at […]. Inhibition curves were generated using PRISM® software (GraphPad). Calculated values represent means±s.e.m for three independent experiments.

APEH [3] = target: T2, APEH; experiment: ABPP-SILAC in living mouse T-cells; conditions: 3 nM inhibitor, 4 h
[4] = system: N-terminally modified proteins (APEH substrates) in mouse T-cells; experiment: SILAC-based N-terminal labeling and enrichment in mouse T-cells
ABHD6 [5] = target: T1, ABHD6; experiment: ABPP-SILAM of brain tissue from treated mice; assay type: in vivo; design: from tissue; host or cells: thioglycolate-elicited peritoneal macrophages of mice; conditions: may not represent actual changes
Method: The potency and selectivity of 1,2,3-triazole ureas in vivo also was investigated. Mice were treated with the APEH inhibitor AA74-1 at various doses (0.2-1.6 mg/kg; PEG300 or 18:1:1 saline/ethanol/emulphor intraperitoneally) and sacrificed after 4 h. Brains and hearts were removed, homogenized, and analyzed by gel-based competitive ABPP. […] Finally, the possibility of extending ABPP-SILAC for the characterization of inhibitor selectivity in vivo was explored by taking advantage of recently described protocols for stable isotope labeling in mammals (SILAM). In this approach, brain tissues from vehicle- and AA74-1-treated mice were separately mixed with equivalent amounts of brain tissue from ‘heavy’ amino acid-fed mice, and the samples were then labeled with FP-biotin, enriched by avidin chromatography, analyzed by LC-MS, and SH activities quantified by measuring the ratio-of-ratios for observed peptide signals. […] The ratio-of-ratio signals for APEH indicated greater than 90% inhibition of this enzyme in AA74-1-treated animals (FIG. 5b, top), consistent with average spectral count values (14 and 1 spectral counts for APEH in vehicle-treated versus AA74-1-treated mice, respectively; FIG. 5b, bottom). […]
C57BL6 mice were labeled with ^15N. […] Brains were determined to be 95% labeled by mass spectrometry with ^15N and used for quantitative analysis. […]

Row | SMILES | inactivation of ABHD6 in Neuro2A cells (ABHD6 [1]) | APEH inhibition by substrate assay (APEH [2]) | APEH activity blocked (APEH [3]) | changes in N-terminal labeling signals of five N-terminally acetylated proteins ([4]; 1 nM) [fold] | number of proteins with consistent two-fold or greater reductions in N-terminal labeling signals ([4]; 1 nM versus DMSO) [proteins] | partial inhibition of ABHD6 suggested by ratio-of-ratio signals (ABHD6 [5])
1 | COc1ccc(-c2ccc(-c3cn(C(=O)N4CCCCC4c4ccccc4)nn3)cc2)cc1 (stereo not drawn) [KT195] | completely inactivating ABHD6 |  |  |  |  | 
2 | CC(C)CC(O)(CC(C)C)c1cnn(C(=O)N2CCCC2)n1 [AA74-1] |  | Complete inhibition of APEH | > 95% and > 97% | 2.5 to 4.6 | 25 | 50-60%
